Laboratory results: PubChem BioAssay (NCI)
Where “and” joins values, the source holds several entries; their conditions need not be identical. Identical values can stand only once.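 Tested at 5 concentrations; 48 h exposure; 96-well plates; endpoints linearly interpolated, else capped at highest concentration. GI50: concentration for 50% inhibition of growth. TGI: concentration producing complete growth inhibition.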

Legend:
Test in all cases: DTP human tumour cell line panel, 48 h
[1] = test system: OVCAR-5 ovarian
[2] = test system: NCI-H460 lung
[3] = test system: OVCAR-8 ovarian
[4] = test system: CCRF-CEM leukemia
[5] = test system: UACC-62 melanoma
[6] = test system: IGROV1 ovarian
[7] = test system: SF-295 CNS
[8] = test system: NCI/ADR-RES ovarian
[9] = test system: HOP-92 NSCLC
[10] = test system: HCC-2998 colon

COc1cc([N+](=O)[O-])ccc1NC(=O)C(F)(F)F
TGI [1]: > 100 µM
TGI [2]: > 100 µM
TGI [3]: > 100 µM
TGI [4]: > 100 µM
TGI [5]: > 100 µM
TGI [6]: > 100 µM
TGI [7]: > 100 µM
TGI [8]: > 100 µM

Cc1cccc(C(C)(C)C)c1NC(=O)CCc1n[nH]c(=S)o1
TGI [1]: > 100 µM
TGI [2]: > 100 µM
TGI [3]: > 100 µM
TGI [4]: > 100 µM
TGI [5]: > 100 µM
TGI [9]: > 100 µM
TGI [6]: > 100 µM
TGI [10]: > 100 µM
TGI [7]: > 100 µM

O=C(NC1CCCCCC1)C1C(=O)N(C2CCCCCC2)C(=O)/C1=N\O (stereo not drawn)
TGI [1]: > 100 µM
TGI [2]: > 100 µM
TGI [3]: > 100 µM
TGI [4]: 87.2 µM
TGI [5]: 48.6 µM
TGI [9]: 46.1 µM
TGI [6]: > 100 µM
TGI [10]: 40.2 µM
TGI [7]: > 100 µM

COc1cc(-c2c(C#N)c(N)n3c(nc4ccccc43)c2C#N)cc(Br)c1OC
GI50 [1]: > 100 µM
TGI [1]: > 100 µM
GI50 [5]: 28.3 µM
TGI [5]: > 100 µM
GI50 [6]: 97.5 µM
TGI [6]: > 100 µM
GI50 [10]: > 100 µM
TGI [10]: > 100 µM
GI50 [7]: > 100 µM
TGI [7]: > 100 µM
GI50 [8]: > 100 µM
TGI [8]: > 100 µM

COC(=O)c1cc2c(c(C(=O)OC)c1O)C(=O)C=CC2=O
TGI [1]: > 54.6 µM
GI50 [2]: > 9.1 µM
TGI [2]: > 74.3 µM
GI50 [3]: > 9.1 µM
TGI [3]: > 40.4 µM
TGI [4]: 4.31 µM
GI50 [5]: 18 µM
TGI [5]: > 9.1 µM and 33.7 µM
TGI [9]: > 21.9 µM
GI50 [6]: > 9.1 µM
TGI [6]: > 58.6 µM
GI50 [10]: > 9.1 µM
TGI [10]: > 57.4 µM
GI50 [7]: > 9.1 µM
TGI [7]: > 56.3 µM

CC(=O)SCCC1c2[nH]c3ccccc3c2CCN1O (stereo not drawn)
TGI [1]: > 100 µM
TGI [2]: > 100 µM
TGI [3]: > 100 µM
TGI [4]: > 100 µM
TGI [5]: > 100 µM
TGI [9]: > 100 µM
TGI [6]: > 100 µM
TGI [10]: > 100 µM
TGI [7]: > 100 µM

CCC(C)(O)c1cn(-c2cccc(S(=O)(=O)O)c2)nn1 (stereo not drawn)
TGI [1]: > 100 µM
TGI [2]: > 100 µM
TGI [3]: > 100 µM
TGI [4]: > 100 µM
TGI [5]: > 100 µM
TGI [9]: > 100 µM
TGI [6]: > 100 µM
TGI [10]: > 100 µM
TGI [7]: > 100 µM

CC(C)(C)OC(=O)N(CCCN(CCn1c2c(c3ccccc3c1=O)C(=O)c1ccccc1-2)C(=O)OC(C)(C)C)CCn1c2c(c3ccccc3c1=O)C(=O)c1ccccc1-2
GI50 [1]: > 50 µM
TGI [1]: > 50 µM
GI50 [2]: 49.7 µM
TGI [2]: > 50 µM
GI50 [3]: 34.9 µM
TGI [3]: > 50 µM
GI50 [4]: 13.3 µM
TGI [4]: > 50 µM
GI50 [5]: > 50 µM
TGI [5]: > 50 µM
GI50 [6]: 34.5 µM
TGI [6]: > 50 µM
GI50 [7]: 15.3 µM
TGI [7]: > 50 µM
GI50 [8]: > 50 µM
TGI [8]: > 50 µM

Cc1ccc(NC(=O)C2C(=O)N(c3ccc(C)c(C)c3)C(=O)/C2=N/O)cc1C (stereo not drawn)
TGI [1]: > 100 µM
TGI [2]: > 100 µM
TGI [3]: > 100 µM
TGI [4]: > 100 µM
TGI [5]: > 100 µM
TGI [9]: > 100 µM
TGI [6]: > 100 µM
TGI [10]: > 100 µM
TGI [7]: > 100 µM

C[C@]12CC[C@@H]3c4ccc(Oc5nc(N6CC6)nc(N6CC6)n5)cc4CC[C@H]3[C@@H]1CCC2=O
GI50 [1]: 12.1 µM
TGI [1]: 30.2 µM
GI50 [2]: 0.517 µM
TGI [2]: 2.79 µM
GI50 [3]: 2.64 µM
TGI [3]: 23.8 µM
GI50 [4]: 1.6 µM
TGI [4]: 16.2 µM
GI50 [6]: 3.3 µM
TGI [6]: 22.2 µM
GI50 [7]: 1.17 µM
TGI [7]: 15.3 µM
GI50 [8]: 4.6 µM
TGI [8]: 33.2 µM

COC(=O)CSc1n[nH]c(-c2ccc(O)c([N+](=O)[O-])c2)n1
TGI [1]: > 100 µM
TGI [2]: > 100 µM
TGI [3]: > 100 µM
TGI [4]: > 100 µM
TGI [5]: > 100 µM
TGI [9]: > 100 µM
TGI [6]: > 100 µM
TGI [10]: > 100 µM
TGI [7]: > 100 µM

CCOC(=O)c1c(C)n(Cc2ccc(OC)cc2)c2c1cc(O)c1[nH]c3c(c12)CCCC3
GI50 [1]: 2.39 µM
TGI [1]: 17.5 µM
GI50 [2]: 8.63 µM
TGI [2]: 27.8 µM
GI50 [3]: 3.05 µM
TGI [3]: 10.9 µM
GI50 [4]: 4.22 µM
TGI [4]: > 100 µM
GI50 [5]: 1.97 µM
TGI [5]: 4.61 µM
GI50 [9]: 2.5 µM
TGI [9]: 55.4 µM
GI50 [6]: 3.76 µM
TGI [6]: 20.5 µM
GI50 [10]: 2.39 µM
TGI [10]: 14.5 µM
GI50 [7]: 13.7 µM
TGI [7]: 42.8 µM

O=C1C2=C(CC3C(C2)C3(Br)Br)C(=O)C2=C1CC1C(C2)C1(Br)Br (stereo not drawn)
TGI [1]: > 100 µM
TGI [2]: > 100 µM
TGI [3]: > 100 µM
TGI [4]: > 100 µM
TGI [5]: > 100 µM
TGI [9]: > 100 µM
TGI [6]: > 100 µM
TGI [10]: > 100 µM
TGI [7]: > 100 µM

N#Cc1cnsc1
TGI [1]: > 100 µM
TGI [2]: > 100 µM
TGI [3]: > 100 µM
TGI [4]: > 100 µM
TGI [5]: > 100 µM
TGI [9]: > 100 µM
TGI [6]: > 100 µM
TGI [10]: > 100 µM
TGI [7]: > 100 µM

CCCCCCCCCCCCCCCCOP(=O)(O)Oc1ccc(/C=C\c2ccc(OP(=O)(O)OCCCCCCCCCCCCCCCC)cc2)cc1
TGI [1]: > 100 µM
TGI [2]: > 100 µM
TGI [3]: 56.1 µM
TGI [4]: 88.7 µM
TGI [5]: > 100 µM
TGI [9]: 67.1 µM
TGI [6]: > 100 µM
TGI [10]: > 100 µM
TGI [7]: > 100 µM

Cc1ccc(C(=O)/C=C/c2ccccc2O)c(C)c1
TGI [1]: > 100 µM
TGI [2]: > 100 µM
TGI [3]: > 100 µM
TGI [4]: > 100 µM
TGI [5]: > 100 µM
TGI [9]: > 100 µM
TGI [6]: > 100 µM
TGI [10]: > 100 µM
TGI [7]: > 100 µM
